Experimental data as given in ChEMBL document CHEMBL1201862, “PubChem BioAssay data set” (2004).
Where “and” joins values, the source holds several entries; their conditions need not be identical. Equal entries are not always repeated.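 Test compounds were applied to cells in 96-well plates for 48 hours at 5 doses. Here, GI50 denotes the concentration required for 50% inhibition of growth.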 Calls of active or inactive are those of the source. Cut-off read from the data, not from the text of the source: active = GI50 up to about 1.1 µM and inactive = higher.

Experiments:
Assay in all cases: NCI-60 cell line screen, 48 h
EKVX = tested on: EKVX
DU-145 = tested on: DU-145
M14 = tested on: M14
LOX IMVI = tested on: LOX IMVI
PC-3 = tested on: PC-3
A549 = tested on: A549
Hs-578T = tested on: Hs-578T
K562 = tested on: K562
HCC 2998 = tested on: HCC 2998
UO-31 = tested on: UO-31
SK-MEL-5 = tested on: SK-MEL-5
RPMI-8226 = tested on: RPMI-8226
SF-295 = tested on: SF-295
BT-549 = tested on: BT-549
RXF 393 = tested on: RXF 393
UACC-62 = tested on: UACC-62
SK-MEL-2 = tested on: SK-MEL-2
MDA-MB-435 = tested on: MDA-MB-435
U-251 = tested on: U-251
TK-10 = tested on: TK-10
CCRF-CEM = tested on: CCRF-CEM
NCI-H522 = tested on: NCI-H522
Malme-3M = tested on: Malme-3M
SNB-75 = tested on: SNB-75
KM12 = tested on: KM12
CAKI-1 = tested on: CAKI-1
OVCAR-3 = tested on: OVCAR-3
MDA-MB-231 = tested on: MDA-MB-231
OVCAR-8 = tested on: OVCAR-8
OVCAR-5 = tested on: OVCAR-5
T47D = tested on: T47D
SR = tested on: SR
NCI-H460 = tested on: NCI-H460
ACHN = tested on: ACHN
NCI-H226 = tested on: NCI-H226
HOP-62 = tested on: HOP-62
SF-268 = tested on: SF-268
NCI-H23 = tested on: NCI-H23
SK-OV-3 = tested on: SK-OV-3
MCF7 = tested on: MCF7
IGROV-1 = tested on: IGROV-1
OVCAR-4 = tested on: OVCAR-4
SNB-19 = tested on: SNB-19
786-0 = tested on: 786-0
SK-MEL-28 = tested on: SK-MEL-28
HCT-116 = tested on: HCT-116
NCI/ADR-RES = tested on: NCI/ADR-RES
HL-60 = tested on: HL-60
HT-29 = tested on: HT-29
SN12C = tested on: SN12C
A498 = tested on: A498
HCT-15 = tested on: HCT-15
UACC-257 = tested on: UACC-257
HOP-92 = tested on: HOP-92
MDA-N = tested on: MDA-N
SW-620 = tested on: SW-620
COLO 205 = tested on: COLO 205
MOLT-4 = tested on: MOLT-4
SF-539 = tested on: SF-539

With `c1cc(CNC2C3CCC(C3)C2c2c[nH]c3ccccc23)cc(CNC2C3CCC(C3)C2c2c[nH]c3ccccc23)c1` (stereo not drawn) the GI50 (EKVX) was 1.76 µM (inactive) and 1.58 µM (inactive), the GI50 (DU-145) was 1.57 µM (inactive) and 1.3 µM (inactive) and the GI50 (M14) was 667 nM (active) and 638 nM (active). The GI50 (LOX IMVI) was 555 nM (active) and 232 nM (active), the GI50 (PC-3) was 1.6 µM (inactive) and 1.64 µM (inactive) and the GI50 (A549) was 600 nM (active) and 773 nM (active). The GI50 (Hs-578T) was 1.43 µM (inactive) and 1.62 µM (inactive), the GI50 (K562) was 155 nM (active) and 203 nM (active) and the GI50 (HCC 2998) was 127 nM (active) and 145 nM (active). For the same molecule, the GI50 (UO-31) was 229 nM (active) and 160 nM (active), the GI50 (SK-MEL-5) was 1.85 µM (inactive) and 1.91 µM (inactive) and the GI50 (RPMI-8226) was 0.207 µM (active). The GI50 (SF-295) was 1.73 µM (inactive) and 1.46 µM (inactive), the GI50 (BT-549) was 1.73 µM (inactive) and 1.75 µM (inactive) and the GI50 (RXF 393) was 1.22 µM (inactive) and 1.31 µM (inactive). The GI50 (UACC-62) was 1.81 µM (inactive) and 1.74 µM (inactive), the GI50 (SK-MEL-2) was 1.57 µM (inactive) and 1.91 µM (inactive) and the GI50 (MDA-MB-435) was 658 nM (active) and 637 nM (active). For the same molecule, the GI50 (U-251) was 619 nM (active) and 615 nM (active), the GI50 (TK-10) was 1.73 µM (inactive) and 1.94 µM (inactive) and the GI50 (CCRF-CEM) was 195 nM (active) and 325 nM (active). The GI50 (NCI-H522) was 1.12 µM (active) and 1.36 µM (inactive), the GI50 (Malme-3M) was 1.87 µM (inactive) and 1.77 µM (inactive) and the GI50 (SNB-75) was 752 nM (active) and 1.3 µM (inactive). The GI50 (KM12) was 596 nM (active) and 759 nM (active), the GI50 (CAKI-1) was 1.65 µM (inactive) and 1.73 µM (inactive) and the GI50 (OVCAR-3) was 1.76 µM (inactive) and 1.71 µM (inactive). The GI50 (MDA-MB-231) was 1.59 µM (inactive) and 1.51 µM (inactive), the GI50 (OVCAR-8) was 1.4 µM (inactive) and 1.46 µM (inactive) and the GI50 (OVCAR-5) was 1.84 µM (inactive) and 1.82 µM (inactive). The GI50 (T47D) was 1.75 µM (inactive) and 1.74 µM (inactive), the GI50 (SR) was 258 nM (active) and 186 nM (active) and the GI50 (NCI-H460) was 366 nM (active) and 405 nM (active). For the same molecule, the GI50 (ACHN) was 1.19 µM (inactive) and 1.57 µM (inactive), the GI50 (NCI-H226) was 2 µM (inactive) and 2.07 µM (inactive) and the GI50 (HOP-62) was 1.85 µM (inactive) and 1.77 µM (inactive). For the same molecule, the GI50 (SF-268) was 1.58 µM (inactive) and 1.53 µM (inactive), the GI50 (NCI-H23) was 1.68 µM (inactive) and 1.77 µM (inactive) and the GI50 (SK-OV-3) was 1.85 µM (inactive) and 1.8 µM (inactive). The GI50 (MCF7) was 0.205 µM (active), the GI50 (IGROV-1) was 1.35 µM (inactive) and 1.59 µM (inactive) and the GI50 (OVCAR-4) was 1.7 µM (inactive) and 1.58 µM (inactive). For the same molecule, the GI50 (SNB-19) was 1.41 µM (inactive) and 1.39 µM (inactive).
With `COc1nc(C(Cl)(Cl)Cl)c(Cl)c(O)c1Cl` the GI50 (EKVX) was > 100 µM (inactive), the GI50 (DU-145) was > 100 µM (inactive) and the GI50 (786-0) was > 100 µM (inactive). The GI50 (LOX IMVI) was > 100 µM (inactive), the GI50 (PC-3) was > 100 µM (inactive) and the GI50 (A549) was > 100 µM (inactive). For the same molecule, the GI50 (K562) was > 100 µM (inactive), the GI50 (HCC 2998) was > 100 µM (inactive) and the GI50 (UO-31) was > 100 µM (inactive). For the same molecule, the GI50 (SK-MEL-28) was > 100 µM (inactive), the GI50 (SK-MEL-5) was > 100 µM (inactive) and the GI50 (HCT-116) was > 100 µM (inactive). The GI50 (RPMI-8226) was > 100 µM (inactive), the GI50 (SF-295) was > 100 µM (inactive) and the GI50 (BT-549) was > 100 µM (inactive). For the same molecule, the GI50 (UACC-62) was > 100 µM (inactive), the GI50 (NCI/ADR-RES) was > 100 µM (inactive) and the GI50 (SK-MEL-2) was > 100 µM (inactive). The GI50 (MDA-MB-435) was > 100 µM (inactive), the GI50 (HL-60) was > 100 µM (inactive) and the GI50 (U-251) was > 100 µM (inactive). The GI50 (HT-29) was > 100 µM (inactive), the GI50 (TK-10) was > 100 µM (inactive) and the GI50 (CCRF-CEM) was > 100 µM (inactive). The GI50 (NCI-H522) was 49.3 µM (inactive), the GI50 (Malme-3M) was > 100 µM (inactive) and the GI50 (KM12) was > 100 µM (inactive). The GI50 (CAKI-1) was 30.5 µM (inactive), the GI50 (OVCAR-3) was > 100 µM (inactive) and the GI50 (SN12C) was > 100 µM (inactive). For the same molecule, the GI50 (MDA-MB-231) was > 100 µM (inactive), the GI50 (OVCAR-8) was > 100 µM (inactive) and the GI50 (OVCAR-5) was > 100 µM (inactive). The GI50 (T47D) was > 100 µM (inactive), the GI50 (SR) was > 100 µM (inactive) and the GI50 (NCI-H460) was > 100 µM (inactive). The GI50 (A498) was > 100 µM (inactive), the GI50 (ACHN) was > 100 µM (inactive) and the GI50 (NCI-H226) was > 100 µM (inactive). The GI50 (HCT-15) was greater than 100 µM, the GI50 (UACC-257) was > 100 µM (inactive) and the GI50 (HOP-62) was > 100 µM (inactive). The GI50 (HOP-92) was > 100 µM (inactive), the GI50 (NCI-H23) was > 100 µM (inactive) and the GI50 (MDA-N) was > 100 µM (inactive). For the same molecule, the GI50 (SK-OV-3) was > 100 µM (inactive), the GI50 (SW-620) was > 100 µM (inactive) and the GI50 (COLO 205) was > 100 µM (inactive). The GI50 (MOLT-4) was > 100 µM (inactive), the GI50 (MCF7) was > 100 µM (inactive) and the GI50 (IGROV-1) was > 100 µM (inactive). For the same molecule, the GI50 (OVCAR-4) was > 100 µM (inactive), the GI50 (SF-539) was > 100 µM (inactive) and the GI50 (SNB-19) was > 100 µM (inactive).
In the case of `C=CCn1c(-c2cc(C(C)(C)C)c(O)c(C(C)(C)C)c2)cs/c1=N\C(P(=O)(O)O)P(=O)(O)O`, the GI50 (EKVX) is reported as > 100 µM (inactive), the GI50 (DU-145) is reported as > 100 µM (inactive) and the GI50 (786-0) is reported as 36.8 µM (inactive). For the same molecule, the GI50 (M14) was > 100 µM (inactive), the GI50 (PC-3) was > 100 µM (inactive) and the GI50 (A549) was > 100 µM (inactive). For the same molecule, the GI50 (Hs-578T) was > 100 µM (inactive), the GI50 (K562) was > 100 µM (inactive) and the GI50 (HCC 2998) was > 100 µM (inactive). For the same molecule, the GI50 (UO-31) was > 100 µM (inactive), the GI50 (SK-MEL-28) was > 100 µM (inactive) and the GI50 (HCT-116) was 14.7 µM (inactive). The GI50 (RPMI-8226) was > 100 µM (inactive), the GI50 (SF-295) was > 100 µM (inactive) and the GI50 (BT-549) was > 100 µM (inactive). The GI50 (NCI/ADR-RES) was > 100 µM (inactive), the GI50 (SK-MEL-2) was > 100 µM (inactive) and the GI50 (MDA-MB-435) was > 100 µM (inactive). The GI50 (HL-60) was 19.9 µM (inactive), the GI50 (U-251) was > 100 µM (inactive) and the GI50 (HT-29) was > 100 µM (inactive). For the same molecule, the GI50 (TK-10) was > 100 µM (inactive), the GI50 (Malme-3M) was > 100 µM (inactive) and the GI50 (SNB-75) was > 100 µM (inactive). The GI50 (KM12) was 83 µM (inactive), the GI50 (CAKI-1) was > 100 µM (inactive) and the GI50 (OVCAR-3) was > 100 µM (inactive). The GI50 (SN12C) was > 100 µM (inactive), the GI50 (MDA-MB-231) was 35.2 µM (inactive) and the GI50 (OVCAR-8) was > 100 µM (inactive). For the same molecule, the GI50 (OVCAR-5) was > 100 µM (inactive), the GI50 (T47D) was > 100 µM (inactive) and the GI50 (SR) was > 100 µM (inactive). The GI50 (NCI-H460) was > 100 µM (inactive), the GI50 (A498) was > 100 µM (inactive) and the GI50 (ACHN) was > 100 µM (inactive). For the same molecule, the GI50 (NCI-H226) was > 100 µM (inactive), the GI50 (HCT-15) was greater than 100 µM and the GI50 (HOP-62) was > 100 µM (inactive). For the same molecule, the GI50 (HOP-92) was > 100 µM (inactive), the GI50 (SF-268) was > 100 µM (inactive) and the GI50 (NCI-H23) was > 100 µM (inactive). The GI50 (SK-OV-3) was > 100 µM (inactive), the GI50 (SW-620) was > 100 µM (inactive) and the GI50 (COLO 205) was > 100 µM (inactive). For the same molecule, the GI50 (MOLT-4) was > 100 µM (inactive), the GI50 (MCF7) was > 100 µM (inactive) and the GI50 (IGROV-1) was > 100 µM (inactive). For the same molecule, the GI50 (OVCAR-4) was > 100 µM (inactive), the GI50 (SF-539) was > 100 µM (inactive) and the GI50 (SNB-19) was > 100 µM (inactive).
